In PubChem BioAssay (NCI):
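The concentration for 50% growth inhibition is given as GI50. TGI is the concentration that stops growth completely.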

Legend:
Experiment in all cases: NCI anticancer screen, dose series, 384-well format
786-0 renal = test system: 786-0 renal
A549 NSCLC = test system: A549 NSCLC
ACHN renal = test system: ACHN renal
BT-549 breast = test system: BT-549 breast
CAKI-1 renal = test system: CAKI-1 renal
COLO 205 colon = test system: COLO 205 colon
EKVX NSCLC = test system: EKVX NSCLC
HCC-2998 colon = test system: HCC-2998 colon
HCT-116 colon = test system: HCT-116 colon
HCT-15 colon = test system: HCT-15 colon
HL-60(TB) leukemia = test system: HL-60(TB) leukemia
HOP-62 NSCLC = test system: HOP-62 NSCLC
HS 578T breast = test system: HS 578T breast
IGROV1 ovarian = test system: IGROV1 ovarian
K-562 leukemia = test system: K-562 leukemia
KM12 colon = test system: KM12 colon
LOX IMVI melanoma = test system: LOX IMVI melanoma
M14 melanoma = test system: M14 melanoma
MALME-3M melanoma = test system: MALME-3M melanoma
MCF7 breast = test system: MCF7 breast
MDA-MB-231 breast = test system: MDA-MB-231 breast
MDA-MB-435 melanoma = test system: MDA-MB-435 melanoma
MDA-MB-468 breast = test system: MDA-MB-468 breast
MOLT-4 leukemia = test system: MOLT-4 leukemia
NCI-H226 lung = test system: NCI-H226 lung
NCI-H322M lung = test system: NCI-H322M lung
NCI-H460 NSCLC = test system: NCI-H460 NSCLC
NCI/ADR-RES ovarian = test system: NCI/ADR-RES ovarian
OVCAR-3 ovarian = test system: OVCAR-3 ovarian
OVCAR-4 ovarian = test system: OVCAR-4 ovarian
OVCAR-5 ovarian = test system: OVCAR-5 ovarian
OVCAR-8 ovarian = test system: OVCAR-8 ovarian
PC-3 prostate = test system: PC-3 prostate
RPMI-8226 leukemia = test system: RPMI-8226 leukemia
RXF 393 renal = test system: RXF 393 renal
SF-295 CNS = test system: SF-295 CNS
SF-539 CNS = test system: SF-539 CNS
SK-MEL-2 melanoma = test system: SK-MEL-2 melanoma
SK-OV-3 ovarian = test system: SK-OV-3 ovarian
SN12C renal = test system: SN12C renal
SNB-19 CNS = test system: SNB-19 CNS
SNB-75 CNS = test system: SNB-75 CNS
TK-10 renal = test system: TK-10 renal
U251 glioblastoma = test system: U251 glioblastoma
UACC-257 melanoma = test system: UACC-257 melanoma
UACC-62 melanoma = test system: UACC-62 melanoma
UO-31 renal = test system: UO-31 renal

**Q.** `C[C@@H](C(=O)Nc1ccc(Cl)cc1)C1CCC(c2ccnc3ccc(F)cc23)CC1` (some centres undefined) was tested. Which GI50 ([…]-0 renal) did it give?
**A.** 10.8 µM

**Q.** And the TGI (786-0 renal)?
**A.** 27 µM

**Q.** What about the GI50 (A549 NSCLC) of the same compound?
**A.** 6.9 µM

**Q.** What about the TGI (A549 NSCLC) of the same compound?
**A.** 66.5 µM

**Q.** What about the GI50 (ACHN renal) of the same compound?
**A.** 9.63 µM

**Q.** What about the TGI (ACHN renal) of the same compound?
**A.** 41.4 µM

**Q.** And the GI50 (BT-549 breast)?
**A.** 7.14 µM

**Q.** And the TGI (BT-549 breast)?
**A.** 20.6 µM

**Q.** What about the GI50 (CAKI-1 renal) of the same compound?
**A.** 19.2 µM

**Q.** And the TGI (CAKI-1 renal)?
**A.** 54.7 µM

**Q.** What about the GI50 (COLO 205 colon) of the same compound?
**A.** 17.4 µM

**Q.** What about the TGI (COLO 205 colon) of the same compound?
**A.** > 62.3 µM

**Q.** And the GI50 (EKVX NSCLC)?
**A.** 4.09 µM

**Q.** What about the TGI (EKVX NSCLC) of the same compound?
**A.** 18.7 µM

**Q.** What about the GI50 (HCC-2998 colon) of the same compound?
**A.** 4.23 µM

**Q.** And the TGI (HCC-2998 colon)?
**A.** 15.9 µM

**Q.** What about the GI50 (HCT-116 colon) of the same compound?
**A.** 6.31 µM

**Q.** What about the TGI (HCT-116 colon) of the same compound?
**A.** 20.4 µM

**Q.** What about the GI50 (HCT-15 colon) of the same compound?
**A.** 11.8 µM

**Q.** And the TGI (HCT-15 colon)?
**A.** 25.6 µM

**Q.** What about the GI50 (HL-60(TB) leukemia) of the same compound?
**A.** 1.35 µM

**Q.** And the TGI (HL-60(TB) leukemia)?
**A.** 2.9 µM

**Q.** And the GI50 (HOP-62 NSCLC)?
**A.** 12.8 µM

**Q.** And the TGI (HOP-62 NSCLC)?
**A.** 29.5 µM

**Q.** And the GI50 (HS 578T breast)?
**A.** 12.7 µM

**Q.** And the TGI (HS 578T breast)?
**A.** 27.4 µM

**Q.** And the GI50 (IGROV1 ovarian)?
**A.** 8.55 µM

**Q.** And the TGI (IGROV1 ovarian)?
**A.** > 47.7 µM

**Q.** What about the GI50 (K-562 leukemia) of the same compound?
**A.** 3.38 µM

**Q.** And the TGI (K-562 leukemia)?
**A.** 13.7 µM

**Q.** And the GI50 (KM12 colon)?
**A.** 5.81 µM

**Q.** And the TGI (KM12 colon)?
**A.** 19.8 µM

**Q.** What about the GI50 (LOX IMVI melanoma) of the same compound?
**A.** 8.67 µM

**Q.** And the TGI (LOX IMVI melanoma)?
**A.** 21.2 µM

**Q.** What about the GI50 (M14 melanoma) of the same compound?
**A.** 13 µM

**Q.** What about the TGI (M14 melanoma) of the same compound?
**A.** 40.8 µM

**Q.** And the GI50 (MALME-3M melanoma)?
**A.** 15.3 µM

**Q.** What about the TGI (MALME-3M melanoma) of the same compound?
**A.** 37.5 µM

**Q.** What about the GI50 (MCF7 breast) of the same compound?
**A.** 7.97 µM

**Q.** And the TGI (MCF7 breast)?
**A.** 25.7 µM

**Q.** And the GI50 (MDA-MB-231 breast)?
**A.** 13.3 µM

**Q.** What about the TGI (MDA-MB-231 breast) of the same compound?
**A.** 65.1 µM

**Q.** What about the GI50 (MDA-MB-435 melanoma) of the same compound?
**A.** 16.9 µM

**Q.** And the TGI (MDA-MB-435 melanoma)?
**A.** 36.7 µM

**Q.** What about the GI50 (MDA-MB-468 breast) of the same compound?
**A.** 2.17 µM

**Q.** And the TGI (MDA-MB-468 breast)?
**A.** 8.1 µM

**Q.** And the GI50 (MOLT-4 leukemia)?
**A.** 2.22 µM

**Q.** And the TGI (MOLT-4 leukemia)?
**A.** 6.85 µM

**Q.** And the GI50 (NCI-H226 lung)?
**A.** 12.2 µM

**Q.** And the TGI (NCI-H226 lung)?
**A.** 28 µM

**Q.** And the GI50 (NCI-H322M lung)?
**A.** 17.7 µM

**Q.** And the TGI (NCI-H322M lung)?
**A.** 78.2 µM

**Q.** What about the GI50 (NCI-H460 NSCLC) of the same compound?
**A.** 2.85 µM

**Q.** What about the TGI (NCI-H460 NSCLC) of the same compound?
**A.** 8.81 µM

**Q.** What about the GI50 (NCI/ADR-RES ovarian) of the same compound?
**A.** 5.62 µM

**Q.** What about the TGI (NCI/ADR-RES ovarian) of the same compound?
**A.** 22 µM

**Q.** And the GI50 (OVCAR-3 ovarian)?
**A.** 7.15 µM

**Q.** And the TGI (OVCAR-3 ovarian)?
**A.** 19.9 µM

**Q.** What about the GI50 (OVCAR-4 ovarian) of the same compound?
**A.** 13.9 µM

**Q.** And the TGI (OVCAR-4 ovarian)?
**A.** 50.2 µM

**Q.** What about the GI50 (OVCAR-5 ovarian) of the same compound?
**A.** 13 µM

**Q.** And the TGI (OVCAR-5 ovarian)?
**A.** 35.3 µM

**Q.** And the GI50 (OVCAR-8 ovarian)?
**A.** 10.4 µM

**Q.** And the TGI (OVCAR-8 ovarian)?
**A.** 25.8 µM

**Q.** What about the GI50 (PC-3 prostate) of the same compound?
**A.** 5.72 µM

**Q.** And the TGI (PC-3 prostate)?
**A.** 19 µM

**Q.** What about the GI50 (RPMI-8226 leukemia) of the same compound?
**A.** 2.58 µM

**Q.** And the TGI (RPMI-8226 leukemia)?
**A.** 7.6 µM

**Q.** And the GI50 (RXF 393 renal)?
**A.** 6.04 µM

**Q.** What about the TGI (RXF 393 renal) of the same compound?
**A.** 20.9 µM

**Q.** And the GI50 (SF-295 CNS)?
**A.** 10 µM

**Q.** What about the TGI (SF-295 CNS) of the same compound?
**A.** 31.1 µM

**Q.** And the GI50 (SF-539 CNS)?
**A.** 14.2 µM

**Q.** What about the TGI (SF-539 CNS) of the same compound?
**A.** 27.5 µM

**Q.** What about the GI50 (SK-MEL-2 melanoma) of the same compound?
**A.** 3.07 µM

**Q.** And the TGI (SK-MEL-2 melanoma)?
**A.** 10.2 µM

**Q.** And the GI50 (SK-OV-3 ovarian)?
**A.** 16.3 µM

**Q.** What about the TGI (SK-OV-3 ovarian) of the same compound?
**A.** 42.7 µM

**Q.** And the GI50 (SN12C renal)?
**A.** 12.7 µM

**Q.** And the TGI (SN12C renal)?
**A.** 28.2 µM

**Q.** What about the GI50 (SNB-19 CNS) of the same compound?
**A.** 17.5 µM

**Q.** What about the TGI (SNB-19 CNS) of the same compound?
**A.** 52.8 µM

**Q.** And the GI50 (SNB-75 CNS)?
**A.** 14.7 µM

**Q.** And the TGI (SNB-75 CNS)?
**A.** 37.9 µM

**Q.** What about the GI50 (TK-10 renal) of the same compound?
**A.** 11.3 µM

**Q.** And the TGI (TK-10 renal)?
**A.** 86.2 µM

**Q.** And the GI50 (U251 glioblastoma)?
**A.** 9.96 µM

**Q.** What about the TGI (U251 glioblastoma) of the same compound?
**A.** 26.2 µM

**Q.** And the GI50 (UACC-257 melanoma)?
**A.** 13.7 µM

**Q.** And the TGI (UACC-257 melanoma)?
**A.** 31.4 µM

**Q.** And the GI50 (UACC-62 melanoma)?
**A.** 14.9 µM

**Q.** And the TGI (UACC-62 melanoma)?
**A.** 29.3 µM

**Q.** And the GI50 (UO-31 renal)?
**A.** 15.8 µM

**Q.** And the TGI (UO-31 renal)?
**A.** 83.2 µM
